According to patent US20260183270A1, “PHARMACEUTICAL COMPOSITION COMPRISING AAK1 INHIBITOR” (Xizang Haisco Pharmaceutical Co., Ltd., priority 2022, published 2026):

What was measured:
[1] = Mouse brain/blood ratio test; format: in vivo, ICR mice; settings: mice
Experimental: male ICR mice, 20 to 25 g, 9 mice/compound. purchased from Chengdu Ddossy Experimental Animals Co., Ltd.
on the day of the experiment, 18 ICR mice were randomly grouped according to their body weights. The animals were fasted with water available for 12 to 14 h one day before the administration and were fed 4 h after the administration.
After intragastric administration, whole blood and brain tissue were collected at 0.5 h, 4 h and 24 h, and the whole blood was centrifuged to separate the plasma. The brain tissue was rinsed with cold physiological saline to remove the residual blood on the surface, drained out and then homogenized. Before analysis and detection, all samples were stored at −80 C, and the samples were quantitatively analyzed by LC-MS/MS.

hERG potassium channel = target: T1, hERG potassium channel (Homo sapiens, UniProt Q12809); test: Test for hERG potassium ion channel (manual whole cell patch-clamp, CHO cells); format: cell-based
T1 construct: expressed in transfected cells
Text: Experimental platform: electrophysiological manual patch-clamp system
Cell line: Chinese hamster ovary (CHO) cell line stably expressing hERG potassium ion channel
Experimental method: in CHO (Chinese Hamster Ovary) cells stably expressing hERG potassium channel, the whole cell patch-clamp technique was used to record hERG potassium channel current at room temperature. The glass microelectrode was made of a glass electrode blank (BF150-86-10, Sutter) by a puller. The tip resistance after filling the liquid in the electrode was about 2-5 MΩ. The glass microelectrode can be connected to the patch-clamp amplifier by inserting the glass microelectrode into an amplifier probe. The clamping voltage and data recording were controlled and recorded by the pClamp 10 software through a computer. The sampling frequency was 10 kHz, and the filtering frequency was 2 kHz. […]
Data processing: data analysis processing was carried out by using pClamp 10, GraphPad Prism 5 and Excel software. The inhibition degree of hERG potassium current (peak value of hERG tail current induced at −50 mV) at different compound concentrations was calculated by the following formula: […]
Compound IC50 was calculated using GraphPad Prism 5 software by fitting according to the following equation: […]

[2] = tested on: SNL-induced mouse model of neuropathic pain; test: Spinal nerve ligation (SNL)-induced mouse model of neuropathic pain, mechanical pain threshold (Von Frey); format: in vivo, C57BL/6J mice; settings: for Course of analgesic efficacy over time / Effect on pain threshold (MPT) of mice after SNL modeling: 10 mg/kg intragastric; for Course of analgesic efficacy over time: 1 to 6 hours after administration; for Effect on pain threshold (MPT) of mice after SNL modeling: single administration, 1, 3 and 6 hours after administration
Text: Male C57BL/6J mice (8 weeks old) purchased from Jinan Pengyue Experimental Animal Breeding Co., Ltd. were adaptively raised for one week and then the models were established. The specific establishment method comprises the following steps: • 1) disinfecting the surgical instrument and ligature; • 2) anesthetizing the mice with isoflurane and then placing the mice on the operating table in the prone position; • 3) shaving the fur near the hip bones of the mice and preparing the skin, and making an incision of about 2 cm along the spine; • 4) isolating the fascia along the spine, performing blunt dissection of the muscles, and exposing the transverse process of L5; • 5) carefully cutting the transverse process of L5 with forceps and exposing the L5 spinal nerve; • 6) carefully isolating the L5 nerve with a glass dissecting needle, and ligating the L5 nerve with a 5-0 ligature; and • 7) suturing the muscles and skin and disinfecting same with iodophor.
The mice that were unsuccessful in modeling were eliminated the next day after modeling (marker for successful modeling: mice with their hind paws curled up). After modeling, the mice were stroked for 3 to 5 minutes every day to ensure that the animals were familiar with the experimenter, and then the mice were placed on a metal pain measuring frame for 40 to 60 minutes of adaptation. After 3 days of acclimatization, Von Frey filaments (Aesthesio®; 0.16 g, 0.4 g, 0.6 g, 1.0 g, 1.4 g and 2.0 g) were used to test the pre-administration baseline values of the animals (Ascending testing approach). Each animal was tested twice and average values were taken, with intervals of at least 5 minutes. The animals were grouped according to the baseline values (10 animals per group). After the grouping, LX-9211 (1 and 10 mg/kg), compound 2 (1 and 10 mg/kg) or vehicle (40% PEG-400+10% ethanol+15% Tween 80+35% physiological saline) was administered intragastrically. The mice were tested for the mechanical pain threshold (MPT) at 1, 3 and 6 hours after the administration. Time-MPT curve was plotted using GraphPad 8.3.0, and statistical analysis was performed.

AAK1 = target: T2, AAK1 (Homo sapiens, UniProt Q2M2I8); test: In vitro AAK1 enzyme activity assay (ADP-Glo); format: biochemical; settings: read-out: Inhibitory activity against AAK1 IC50
T2 construct: purchased Signalchem A01-11G-10
Experimental: Compound stock solution (concentration: 10 mM, dissolved in DMSO) was diluted with DMSO to 0.2 mM and then diluted with DMSO in 5-fold gradient to obtain compound solutions with 10 concentrations. Subsequently, the compound solutions with different concentrations were diluted 50-fold in 1× kinase reaction buffer (containing 40 mM Tris, 20 mM MgCl2, 0.1% BSA and 0.5 mM DTT) for later use. AAK1 (Signalchem, Cat #A01-11G-10) was diluted with 1× kinase reaction buffer to 2-fold the final concentration (final concentrations: 30 nM and 28 nM). AAK1 was added to a 384-well white plate at 2 μL/well, and the compounds were then added at 1 μL/well. The plate was sealed with a plate-sealing film, centrifuged at 1000 rpm for 30 seconds and then placed at room temperature for 10 minutes. […] The RLU (Relative luminescence unit) signal values were read using a Biotek multimode microplate reader and the percent inhibition was calculated according to the following formula: [1−(LUMcompound−LUMpositive control)/(LUMnegative control−LUMpositive control)]×100. IC50 values were calculated using Graphpad 7.0 software using a four-parameter non-linear fit equation.

[3] = Pharmacokinetic test of dogs; format: in vivo; settings: beagle dogs, i.g. (3 mg/kg)
Experimental: Experimental animals: male beagle dogs, about 8 to 11 kg, 6 beagle dogs/compound, purchased from Beijing Marshall Biotechnology Co., Ltd.
Experimental method: on the day of the experiment, 12 beagle dogs were randomly grouped according to their body weights. The animals were fasted with water available for 12 to 14 h one day before the administration and were fed 4 h after the administration. Administration was performed as per Table 2.
Before and after the administration, 1 ml of blood was taken from the jugular veins or limb veins, and placed in an EDTAK2 centrifuge tube. Centrifugation was performed at 5000 rpm at 4° C. for 10 min, and plasma was collected. Blood sampling time points for both the LX9211 intravenous administration group and intragastric administration group include: 0 min, 5 min, 15 min, 30 min, 1 h, 2 h, 4 h, 6 h, 8 h, 10 h, 12 h, and 24 h, and blood sampling time points for both the compound 9 intravenous administration group and intragastric administration group include: 0 min, 5 min, 15 min, 30 min, 1 h, 2 h, 4 h, 6 h, 8 h, 10 h, 12 h, 24 h, and 48 h. Before analysis and detection, all samples were stored at −80° C., and the samples were quantitatively analyzed by LC-MS/MS.

T1 sequence (Q12809 whole entry): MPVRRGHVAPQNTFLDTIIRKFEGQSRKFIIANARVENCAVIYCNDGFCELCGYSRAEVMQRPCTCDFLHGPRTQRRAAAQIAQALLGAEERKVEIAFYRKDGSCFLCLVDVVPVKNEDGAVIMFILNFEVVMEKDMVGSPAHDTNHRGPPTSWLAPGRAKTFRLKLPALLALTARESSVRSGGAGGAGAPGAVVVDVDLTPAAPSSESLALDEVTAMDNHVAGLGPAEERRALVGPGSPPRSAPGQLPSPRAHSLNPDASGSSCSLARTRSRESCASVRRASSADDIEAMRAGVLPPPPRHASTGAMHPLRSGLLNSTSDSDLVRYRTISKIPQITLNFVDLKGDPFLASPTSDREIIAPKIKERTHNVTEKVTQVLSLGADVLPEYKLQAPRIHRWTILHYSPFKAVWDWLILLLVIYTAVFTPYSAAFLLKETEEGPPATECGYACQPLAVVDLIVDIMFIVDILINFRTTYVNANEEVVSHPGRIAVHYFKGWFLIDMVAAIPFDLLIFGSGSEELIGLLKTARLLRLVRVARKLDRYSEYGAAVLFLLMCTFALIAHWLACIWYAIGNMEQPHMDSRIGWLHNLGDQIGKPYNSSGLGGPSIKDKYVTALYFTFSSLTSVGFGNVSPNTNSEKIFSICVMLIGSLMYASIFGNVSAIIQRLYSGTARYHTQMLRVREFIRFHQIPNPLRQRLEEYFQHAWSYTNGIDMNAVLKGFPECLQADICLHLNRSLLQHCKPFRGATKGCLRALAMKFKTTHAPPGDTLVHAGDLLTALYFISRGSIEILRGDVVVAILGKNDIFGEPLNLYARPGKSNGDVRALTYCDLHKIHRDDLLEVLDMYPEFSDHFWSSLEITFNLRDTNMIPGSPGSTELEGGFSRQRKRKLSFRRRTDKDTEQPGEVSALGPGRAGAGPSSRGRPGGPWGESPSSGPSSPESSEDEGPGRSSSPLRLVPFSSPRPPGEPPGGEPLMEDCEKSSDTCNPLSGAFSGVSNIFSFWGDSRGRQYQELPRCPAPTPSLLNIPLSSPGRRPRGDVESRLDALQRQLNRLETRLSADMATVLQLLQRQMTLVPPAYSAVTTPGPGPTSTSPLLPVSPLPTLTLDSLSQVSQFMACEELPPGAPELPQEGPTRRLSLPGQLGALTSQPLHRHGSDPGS
T2 sequence (Q2M2I8 27-365 limits assumed): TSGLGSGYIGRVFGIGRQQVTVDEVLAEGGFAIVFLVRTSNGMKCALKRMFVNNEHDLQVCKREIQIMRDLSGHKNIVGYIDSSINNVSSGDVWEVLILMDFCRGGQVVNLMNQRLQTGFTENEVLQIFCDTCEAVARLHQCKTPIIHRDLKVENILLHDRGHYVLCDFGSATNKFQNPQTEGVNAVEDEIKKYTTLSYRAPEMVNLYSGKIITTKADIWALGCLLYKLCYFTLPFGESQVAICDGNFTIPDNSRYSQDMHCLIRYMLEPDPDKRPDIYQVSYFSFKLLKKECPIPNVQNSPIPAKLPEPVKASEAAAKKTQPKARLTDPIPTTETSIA

SMILES | Kp ([1]; male, ICR, mouse, brain/plasma, po, i.g. (10 mg/kg)) | AUC(0-t) ([1]; male, ICR, mouse, plasma, po, i.g. (10 mg/kg), read-out: Plasma AUC0-t) | Brain penetrability (in words) [1] | Brain tissue AUC0-t ([1]; i.g. (10 mg/kg)) | inhibition at 40 µM (hERG potassium channel; human, CHO cells stably expressing hERG potassium channel, at 40 μM, read-out: Inhibition rate at the highest concentration tested (hERG potassium channel current)) | IC50 (hERG potassium channel; read-out: IC50 (hERG potassium channel current)) | Course of analgesic efficacy over time [2] | Effect on pain threshold (MPT) of mice after SNL modeling [2] | Efficacy compared with LX-9211 ([2]; at 3 and 6 hours after the administration) | Pharmacodynamic activity as an analgesic compared with LX-9211 ([2]; overall conclusion) | IC50 (AAK1) | F [3]
C=C(C)CC(C)(N)COc1ccc(-c2ccnc(C(F)F)c2)nc1C(F)F (single isomer, unassigned) [Compound 2] | 64.5 | 572 ng·h/mL | high brain penetrability | 36853 ng·h/g | 86.6 ± 1.77% | 8750 nM | tended to be stable | effectively increased the pain threshold | better efficacy than LX-9211 | better pharmacodynamic activity than LX-9211 | 10.9 nM | –
COC(=O)Nc1cc(-c2ccc(OC[C@@](C)(N)CC(C)(C)F)c(C(F)F)n2)ccn1 [Compound 9] | – | – | – | – | – | – | – | – | – | – | – | 113 ± 6.9%
COC(=O)Nc1cc(-c2ccc(OC[C@@](C)(N)CC(C)(C)F)c(C)n2)ccn1 [Compound 10] | – | – | – | – | – | – | – | – | – | – | 13.7 nM | –
CC(C)C[C@](C)(N)COc1ccc(-c2ccnc(C(F)F)c2)nc1C(F)F [LX-9211, reference compound] | – | – | – | 110424 ng·h/g | – | – | efficacy gradually decreased thereafter | effectively increased the pain threshold | – | – | – | 22.2 ± 8.1%
